Publication PMC8018465, “Antimicrobial activities of a small molecule compound II-6s against oral streptococci” (Journal of Oral Microbiology, 2021)
In brackets after ≈: the same amount, converted by molar mass.

Experiments:
S. sanguinis = assay: Bacterial susceptibility assay (microdilution, planktonic); format: cell-based, Streptococcus sanguinis ATCC10556; conditions: Streptococcus sanguinis, BHI medium
Protocol: Streptococcus mutans UA159, Streptococcus gordonii DL1 and Streptococcus sanguinis ATCC10556 were obtained from the State Key Laboratory of Oral Diseases (Sichuan University, Chengdu, China). All strains were routinely cultured in brain heart infusion broth (BHI; Difco, Sparks, MD) under anaerobic conditions (5% CO2) at 37°C. For biofilm formation, bacteria were cultured in BHI broth supplied with 1% sucrose (designated BHIS).
The minimum inhibitory concentration (MIC) and minimum bactericidal concentration (MBC) of II-6s against S. mutans, S. gordonii, and S. sanguinis were measured by a microdilution method in BHI as described previously. The bacterial inoculum for the experiment was adjusted to 1 × 10^7 colony-forming units (CFU)/ml for S. mutans, S. gordonii, and S. sanguinis based on the optical density at 600 nm (OD600) versus a CFU/ml graph of each bacterium. Bacterial suspension was added to 96-well microtiter plates which were supplemented with serially diluted concentrations of II-6s ranging from 0.98 to 500 μg/ml. Each plate also included CHX ranging from 0.98 to 500 μg/ml as a positive control, test bacteria and BHI broth as a negative control, BHI broth containing equivalent DMSO (0.5% to 0.001%, ν/ν) as a solvent control and a blank control. […] The lowest concentration of the test solutions that allowed no visible growth on a BHI agar plate was taken as MBC. The experiment was performed in triplicates and repeated at least three times.

[1] = test system: S. mutans/S. gordonii/S. sanguinis 3-species biofilms; assay: 3-species biofilm imaging (EPS, dead/live, FISH) and quantitative PCR; format: cell-based
Protocol: To form 3-species biofilms, bacterial suspensions were mixed to obtain an inoculum consisting of S. mutans, S. gordonii, and S. sanguinis (1 × 10^5 CFU/ml for each strain, inoculum ratio = 1:1:1) in BHIS broth as described previously. The inoculum (250 μl) was added into the chemotaxis chamber (μ-slide 8well, 80,826; Ibidi) and incubated for 24 h. After the multispecies biofilms were formed, they were treated with different concentrations of II-6s, CHX and PBS for 5 days (5 min, three times per day).
For EPS staining, 2.5 μM Alexa Fluor 647-labeled dextran conjugate (Molecular Probes) was added to the culture medium from the beginning of the biofilm formation, and the bacteria were stained with 2.5 μM SYTO 9 (Molecular Probes, Invitrogen) for 15 min after biofilms formed. The biofilms were imaged with a DMIRE2 confocal laser scanning microscope (Leica, Wetzlar, Germany) equipped with a 60 × oil immersion lens.
For dead/live imaging, multispecies biofilms were stained with the Live/Dead BacLight Bacterial Viability Kit (Molecular Probes, Invitrogen), and the reagents were applied to the biofilms at final concentrations of 2.5 μM SYTO 9 and 2.5 μM propidium iodide for 15 min. Live/Dead staining is a measure of membrane damage since SYTO 9 penetrates intact cytoplasmic membranes, while propidium iodide is only able to penetrate damaged membranes. The dyed biofilms were imaged with a Leica DMIRE2 confocal laser scanning microscope as in EPS staining.
For fluorescent in situ hybridization imaging, biofilms were fixed in 4% paraformaldehyde overnight and investigated by species-specific probes (Table S1) as described previously [[30–32]]. In brief, prehybridization (15 min, 46°C) was performed in 250 μl hybridization buffer with 20% formamide in the absence of any oligonucleotide probes. The incubation time for the hybridization was almost 90 min at 46°C in the dark. After the incubation, biofilms were transferred into washing buffer preheated to 48°C and incubated for 15 min at this temperature. After staining, the biofilms were imaged with a Leica DMIRE2 confocal laser scanning microscope as in EPS staining.
Each biofilm was scanned at five randomly selected positions and the experiments were performed in triplicates on three independent occasions. All three-dimensional reconstructions of the biofilms were processed with Imaris, version 7.2.3 (Bitplane, Zürich, Switzerland), and the quantification of fluorescence levels was performed with ImageJ (with the plugin COMSTAT) (National Institutes of Health, Bethesda, MD).
Total DNA of biofilms was isolated and purified using a TIANamp Bacteria DNA kit (Tiangen, Beijing, China). The bacteria were lysed using enzymatic lysis buffer (20 mM Tris-HCl, pH 8.0, 2 mM sodium EDTA, and 1.2% Triton X-100) containing 25 mg/ml of lysozyme at 37°C for 1.5 h. The purity and concentration of DNA were determined by a NanoDrop 2000 spectrophotometer (Thermo Scientific, Waltham, MA, USA). The extracts were placed at −20°C before use. TaqMan real-time PCR (Life Technologies, Carlsbad, CA, USA) was applied to quantify the absolute number of S. mutans, S. gordonii and S. sanguinis as described by the manufacturer (TaKaRa, Dalian, China). The sequences of primers (Table S2) were in accordance with previous studies. The standard curves of these bacteria were plotted using cycle values of DNA, which stands for corresponding concentrations of bacteria from 1 × 10^8 CFU/ml to 1 × 10^4 CFU/ml (Figure S1). The number of each strain within 3-species biofilms was calculated based on standard curves. The experiment was conducted in triplicates and repeated three times.

[2] = 5 days, 5 min three times per day

| Compound | MBC (S. sanguinis) [µg/mL] | MIC (S. sanguinis) [µg/mL] | EPS/bacteria ratio of the biofilms [1, 2] | microbial composition within 3-species biofilms (FISH, quantitative PCR) [1, 2] | dead/live bacteria ratio of biofilm ([1]; II-6s 125 μg/ml, vs 0.2% of CHX) | dead/live bacteria ratio of biofilms ([1]; II-6s 31.25 to 125 μg/ml, vs non-treated control) | reduction of bacterial biomass and EPS production ([1]; II-6s 31.25 to 125 μg/ml, 5 days, 5 min three times per day) |
| --- | --- | --- | --- | --- | --- | --- | --- |
| [H]/N=C(\N/C(=N/[H])NCCCCCCNC(=N)NC(=N)Nc1ccc(Cl)cc1)Nc1ccc(Cl)cc1 [CHX, Chlorhexidine digluconate, reference compound] | 3.91 | 0.49 | neither II-6s nor CHX treatment altered the EPS/bacteria ratio |  |  |  |  |
| CC(C)(Cc1ccc2ccccc2c1)NC[C@H](O)CNc1cc(C(F)(F)F)cc(C(F)(F)F)c1 [II-6s, (S)-1-((3,5-bis(trifluoromethyl)phenyl)amino)-3-((2-methyl-1-(naphthalen-2-yl)propan-2-yl)amino)propan-2-ol] | 7.81 (≈ 16.1 µM) | 1.95 (≈ 4.02 µM) | neither II-6s nor CHX treatment altered the EPS/bacteria ratio | effectively reduced the total biomass of streptococci but did not specifically reduce the cariogenic S. mutans | even higher than that treated with 0.2% of CHX | significantly higher than that of the non-treated control | equivalent ability to reduce bacterial biomass and EPS production as compared to 0.2% of CHX |
